Starred links: 1 amine or outer side, 2 acyl side, 3 side chain; linkers in the order of their positions; H or OH if unused. Positions of bridges follow the written chain, without caps; N, C: chain ends. Non-standard residues stand in square brackets, D forms with d. Residues, ends and D or L forms follow the SMILES beside them. Chains are numbered I, II in the order given. Actinocin(9to1) = Cc1c2oc3c(C)ccc(C(=O)[*:1])c3nc-2c(C(=O)[*:2])c(N)c1=O; NMeV = CN[C@H](C(=O)O)C(C)C; Sar = CNCC(=O)O

The text below walks through data of article PMC3627577 (2013).

In assay [1] the test system is (CGG)16 (DNA, repeat) CGGCGGCGGCGGCGGCGGCGGCGGCGGCGGCGGCGGCGGCGGCGGCGG
Briefly: UV melting, 260 nm. The following applies: 50 mM NaCl; 20 mM Tris-HCl pH 7.3; 12 μM compound, 1 μM DNA.

The subject of assay [2] is GG2 hairpin (DNA, hairpin) ATGCGGCATTGTATGCGGCAT
As to the kind of experiment: SPR kinetics, bivalent ligand model. The following applies: 50 mM NaCl; 20 mM Tris-HCl pH 7.3; ka/kd; site 1 of 2.

Assay [3] concerns GC1 hairpin (DNA, hairpin) AAAGCTTTTGTAAAGCTTT
As to the kind of experiment: SPR kinetics, 1:1 Langmuir. The note with it: 50 mM NaCl; 20 mM Tris-HCl pH 7.3; ka/kd.

Assay [4] concerns GC2 hairpin (DNA, hairpin) ATGCGCATTGTATGCGCAT
As to the kind of experiment: SPR kinetics, bivalent ligand model. The note with it: 50 mM NaCl; 20 mM Tris-HCl pH 7.3; ka/kd; site 1 of 2.

Assay [5] relates to AT2 hairpin (DNA, hairpin) ATGCATGCATTGTATGCATGCAT
As to the kind of experiment: SPR kinetics, bivalent ligand model. The note with it: 50 mM NaCl; 20 mM Tris-HCl pH 7.3; ka/kd; site 1 of 2.

With `COc1cccc2c1C(=O)c1c(O)c3c(c(O)c1C2=O)C[C@@](O)(C(C)=O)C[C@@H]3O[C@H]1C[C@H](N)[C@H](O)[C@H](C)O1`, the thermal shift (ΔTm) in assay [1] amounted to 10.1 °C.

As for `Cc1c2ccncc2c(C)c2c1[nH]c1ccccc12`, in assay [1], the shift in melting temperature (ΔTm) turned out to be 11.8 °C.

Turning to `Cc1c2oc3c(C)ccc(C(=O)N[C@@H]4C(=O)N[C@H](C(C)C)C(=O)N5CCC[C@H]5C(=O)N(C)CC(=O)N(C)[C@@H](C(C)C)C(=O)O[C@@H]4C)c3nc-2c(C(=O)N[C@@H]2C(=O)N[C@H](C(C)C)C(=O)N3CCC[C@H]3C(=O)N(C)CC(=O)N(C)[C@@H](C(C)C)C(=O)O[C@@H]2C)c(N)c1=O` (I: T[dV]P[Sar][NMeV] / II: T[dV]P[Sar][NMeV]; ester I:1-I:C, II:1-II:C; linker I:N-II:N via Actinocin(9to1)), the Ka1 in assay [2] came out at 3.08e+06 M⁻¹; in assay [3], 2.29e+06 M⁻¹; in assay [4], 6.07e+06 M⁻¹; in assay [5] it was 1.287e+07 M⁻¹. The ΔTm in assay [1] was 23.4 °C.
